These results are taken from patent US8901307B2, “Chemical compounds 251” (AstraZeneca AB, priority 2008, dated 2014).

Counter-ions that a name gives are not always drawn. A value given as a limit tells only on which side of the number the result lay.

The target in one assay is T1, human His-PIM1 [2-313] (Homo sapiens, UniProt P11309).
T1 construct: purified human His-PIM1 [2-313] enzyme; His (N); purchased University of Dundee, Scotland; host or cells: baculovirus system
Nature of the assay: PIM1 in-vitro mobility shift assay (Caliper LC3000, FL-Ahx-Bad phosphorylation). The class given is biochemical. The following applies: 1.5 h; percent inhibition at 0.3 uM compound; read-out: PIM1 % I at 0.3 uM. The method, boiled down:
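Compound preincubated 20 min at 25 °C with 2.4 nM PIM1, 3.6 µM FL-Ahx-Bad peptide and 240 µM ATP (1.2× mix concentrations). Reaction started with 24 mM MgCl2 mix, run 90 min at 25 °C, EDTA-stopped. Phospho/unphospho peptide separated by microfluidic mobility shift; percent inhibition from ratiometric turnover.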

The next assay addresses T2, human His-PIM2 [23-299] (Homo sapiens, UniProt Q9P1W9).
T2 construct: purified human His-PIM2 [23-299] enzyme; His (N); host or cells: E. coli
Nature of the assay: PIM2 in-vitro mobility shift assay (Caliper LC3000, FL-Ahx-Bad phosphorylation). The class given is biochemical. The following applies: 1.5 h; percent inhibition at 0.3 uM compound; read-out: PIM2 % I at 0.3 uM.

T2 sequence (Q9P1W9 23-299): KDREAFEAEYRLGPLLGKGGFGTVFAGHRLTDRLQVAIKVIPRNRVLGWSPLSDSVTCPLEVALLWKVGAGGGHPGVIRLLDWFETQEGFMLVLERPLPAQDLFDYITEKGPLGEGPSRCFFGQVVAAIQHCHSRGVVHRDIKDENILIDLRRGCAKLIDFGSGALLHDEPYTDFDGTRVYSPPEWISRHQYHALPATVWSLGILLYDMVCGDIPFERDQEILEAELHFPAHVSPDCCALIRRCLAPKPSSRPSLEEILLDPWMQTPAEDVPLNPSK
T1 sequence (P11309 2-313): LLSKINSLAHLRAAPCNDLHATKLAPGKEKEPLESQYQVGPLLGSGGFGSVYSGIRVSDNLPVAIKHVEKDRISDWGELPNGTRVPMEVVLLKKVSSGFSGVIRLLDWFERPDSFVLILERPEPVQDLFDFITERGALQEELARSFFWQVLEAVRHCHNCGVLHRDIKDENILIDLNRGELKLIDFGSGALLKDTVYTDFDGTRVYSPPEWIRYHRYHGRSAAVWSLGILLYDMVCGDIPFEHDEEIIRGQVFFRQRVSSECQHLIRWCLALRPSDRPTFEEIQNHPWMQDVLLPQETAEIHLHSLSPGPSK

As to `N[C@H]1CCN(c2cc(Cl)ccc2/C=C2\SC(=O)NC2=O)C1` [Example 85, (S,Z)-5-(2-(3-aminopyrrolidin-1-yl)-4-chlorobenzylidene)thiazolidine-2,4-dione hydrochloride], the inhibition at 0.3 µM at human His-PIM1 [2-313] is above 95%; on human His-PIM2 [23-299] it was 82.4%.
Taken in the same sequence, the figures for `N[C@H]1CCN(c2c(Cl)cccc2/C=C2\SC(=O)NC2=O)C1` [Example 86, (S,Z)-5-(2-(3-aminopyrrolidin-1-yl)-3-chlorobenzylidene)thiazolidine-2,4-dione hydrochloride] were above 95% and above 95%.
Taken in the same sequence, the figures for `O=C1NC(=O)/C(=C/c2cc(C(F)(F)F)ccc2N2CCNCC2)S1` [Example 87, (Z)-5-(2-(piperazin-1-yl)-5-(trifluoromethyl)benzylidene)thiazolidine-2,4-dione hydrochloride] were above 95% and 84.2%.
Consider `N[C@H]1CCN(c2ccc(C(F)(F)F)cc2/C=C2\SC(=O)NC2=O)C1` [Example 88, (S,Z)-5-(2-(3-aminopyrrolidin-1-yl)-5-(trifluoromethyl)benzylidene)thiazolidine-2,4-dione hydrochloride], for which the results for the inhibition at 0.3 µM at human His-PIM1 [2-313] and at human His-PIM2 [23-299] were above 95% and 88.4%, respectively.
As to `O=C1NC(=O)/C(=C/c2cccnc2N2CCNCC2)S1` [Example 89, (Z)-5-((2-(piperazin-1-yl)pyridin-3-yl)methylene)thiazolidine-2,4-dione hydrochloride], the inhibition at 0.3 µM on human His-PIM1 [2-313] is 48.4%; at human His-PIM2 [23-299], 21.5%.
As for `NCCC(=O)N1CCN(c2ncccc2/C=C2\SC(=O)NC2=O)CC1` [Example 90, (Z)-5-((2-(4-(3-aminopropanoyl)piperazin-1-yl)pyridin-3-yl)methylene)thiazolidine-2,4-dione trifluoroacetate], the inhibition at 0.3 µM came out at 78.2% at human His-PIM1 [2-313] and 86.3% at human His-PIM2 [23-299].
Taken in the same sequence, the figures for `O=C1NC(=O)/C(=C/c2ccccc2N2CCN(C(=O)C3CCNCC3)CC2)S1` [Example 91, (Z)-5-(2-(4-(piperidine-4-carbonyl)piperazin-1-yl)benzylidene)thiazolidine-2,4-dione] were 6.6% and 16.4%.
Taken in the same sequence, the figures for `O=C1NC(=O)/C(=C/c2cc(C(F)(F)F)ccc2N2CCN(C(=O)C3CCCNC3)CC2)S1` (stereo not drawn) [Example 92, (Z)-5-(2-(4-(piperidine-3-carbonyl)piperazin-1-yl)-5-(trifluoromethyl)benzylidene)thiazolidine-2,4-dione hydrochloride] were above 95% and 81.5%.
Taken in the same sequence, the figures for `NCCC(=O)N1CCN(c2ccc(C(F)(F)F)cc2/C=C2\SC(=O)NC2=O)CC1` [Example 93, (Z)-5-(2-(4-(3-aminopropanoyl)piperazin-1-yl)-5-(trifluoromethyl)benzylidene)thiazolidine-2,4-dione hydrochloride] were above 95% and 66.3%.
Turning to `COc1cccc(/C=C2\SC(=O)NC2=O)c1N1CCN(C(=O)CCN)CC1` [Example 94, (Z)-5-(2-(4-(3-aminopropanoyl)piperazin-1-yl)-3-methoxybenzylidene)thiazolidine-2,4-dione hydrochloride], the inhibition at 0.3 µM at human His-PIM1 [2-313] and on human His-PIM2 [23-299] was above 95% throughout.
For `NCCC(=O)N1CCN(c2c(Cl)cccc2/C=C2\SC(=O)NC2=O)CC1` [Example 95, (Z)-5-(2-(4-(3-aminopropanoyl)piperazin-1-yl)-3-chlorobenzylidene)thiazolidine-2,4-dione hydrochloride], the inhibition at 0.3 µM on human His-PIM1 [2-313] and at human His-PIM2 [23-299] was above 95% throughout.
Regarding `COc1cccc(/C=C2\SC(=O)NC2=O)c1N1CC[C@H](N)C1` [Example 96, hydrochloride], the inhibition at 0.3 µM on human His-PIM1 [2-313] and on human His-PIM2 [23-299] was above 95% each time.
